Structures can show the parent of a compound that is named as a salt.
Target: PAD4 enzyme (Homo sapiens (Human), UniProt Q9UM07)
Test: Ammonia Release Biochemical Assay (citrullination detected via ammonia release)
Details: PAD4 120 nM, substrate BAEE, 60-min preincubation, read-out: NH3 release
Method: Ammonia Release Biochemical Assay
Citrullination assay was detected via ammonia release. PAD4 enzyme was diluted to 120 nM in assay buffer (100 mM HEPES, 50 mM NaCl, 2 mM DDT, 0.6 mg/mL BSA, pH 7.4) added to wells containing various concentration of compound or DMSO vehicle (1% final) in black 384 well plate. Following a 60-min preincubation at room temperature, the reaction was initiated by the addition of substrate (1.5 mM BAEE in 200 mM HEPES, 50 mM NaCl, 350 uM CaCl2, 2 mM, pH 7.4). The reaction was stopped after 60 min by addition of stop/detection buffer containing 50 mM EDTA, 2.6 mM of o-phthaladehyde and 2.6 mM DTT. Assay was incubated at room temperature for 90 min before measuring fluorescence's (λex 405/λem 460 nm) on Tecan reader. IC50 was calculated using XL-fit software model 205. (Ref: Nat Chem Biol. 2015 March; 11(3):189-91).

Sequence of PAD4 enzyme (Q9UM07 whole entry): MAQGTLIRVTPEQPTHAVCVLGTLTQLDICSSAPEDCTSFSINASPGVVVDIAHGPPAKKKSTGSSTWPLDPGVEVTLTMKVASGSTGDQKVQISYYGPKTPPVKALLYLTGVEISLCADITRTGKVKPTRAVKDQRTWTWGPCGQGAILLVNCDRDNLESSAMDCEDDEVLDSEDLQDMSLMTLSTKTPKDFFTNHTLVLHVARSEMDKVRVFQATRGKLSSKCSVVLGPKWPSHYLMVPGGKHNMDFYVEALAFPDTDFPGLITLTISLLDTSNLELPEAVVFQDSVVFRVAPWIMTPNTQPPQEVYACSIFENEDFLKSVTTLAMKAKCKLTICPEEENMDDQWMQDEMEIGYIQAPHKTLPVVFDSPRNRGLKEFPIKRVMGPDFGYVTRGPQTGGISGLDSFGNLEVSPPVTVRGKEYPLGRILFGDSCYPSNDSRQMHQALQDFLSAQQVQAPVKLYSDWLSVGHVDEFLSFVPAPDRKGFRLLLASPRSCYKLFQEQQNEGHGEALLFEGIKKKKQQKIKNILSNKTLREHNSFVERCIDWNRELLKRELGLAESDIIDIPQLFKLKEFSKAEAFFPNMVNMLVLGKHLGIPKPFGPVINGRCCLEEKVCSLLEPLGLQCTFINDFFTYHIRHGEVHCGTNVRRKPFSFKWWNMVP

SMILES	IC50 [µM]
N[C@@H]1CCN(C(=O)c2cc3c4c(c2)nc(-c2cc5ccccc5n2CC2CC2)n4CCO3)C1 [Example 2, (R)-(3-aminopyrrolidin-1-yl)(2-(1-(cyclopropylmethyl)-1H-indol-2-yl)-3,4-dihydro-5-oxa-1,2a-diazaacenaphthylen-7-yl)methanone]	1 to 10
CCn1c(-c2nc3cc(C(=O)N4CCC[C@@H](N)C4)cc4c3n2CCO4)cc2ccccc21 [Example 3, (R)-(3-aminopiperidin-1-yl)(2-(1-ethyl-1H-indol-2-yl)-3,4-dihydro-5-oxa-1,2a-diazaacenaphthylen-7-yl)methanone]	1 to 10
COCCn1c(-c2nc3cc(C(=O)N4CCC[C@@H](N)C4)cc4c3n2CCO4)cc2ccc(OC)cc21 [Example 21, (R)-(3-aminopiperidin-1-yl)(2-(6-methoxy-1-(2-methoxyethyl)-1H-indol-2-yl)-3,4-dihydro-5-oxa-1,2a-diazaacenaphthylen-7-yl)methanone]	≤ 1
N[C@@H]1CCCN(C(=O)c2cc3c4c(c2)nc(-c2cc5ccccc5n2CCO)n4CCO3)C1 [Example 22, (R)-(3-aminopiperidin-1-yl)(2-(1-(2-hydroxyethyl)-1H-indol-2-yl)-3,4-dihydro-5-oxa-1,2a-diazaacenaphthylen-7-yl)methanone]	≤ 1
N[C@@H]1CCCN(C(=O)c2cc3c4c(c2)nc(-c2cc5ccccc5n2Cc2cnccn2)n4CCO3)C1 [Example 25, (R)-(3-aminopiperidin-1-yl)(2-(1-(pyrazin-2-ylmethyl)-1H-indol-2-yl)-3,4-dihydro-5-oxa-1,2a-diazaacenaphthylen-7-yl)methanone]	≤ 1
N[C@@H]1CCCN(C(=O)c2cc3c4c(c2)nc(-c2cc5ccccc5n2Cc2ncccc2F)n4CCO3)C1 [Example 26, (R)-(3-aminopiperidin-1-yl)(2-(1-((3-fluoropyridin-2-yl)methyl)-1H-indol-2-yl)-3,4-dihydro-5-oxa-1,2a-diazaacenaphthylen-7-yl)methanone]	≤ 1
N[C@@H]1CCCN(C(=O)c2cc3c4c(c2)nc(-c2cc5ccccc5n2Cc2cncnc2)n4CCO3)C1 [Example 29, (R)-(3-aminopiperidin-1-yl)(2-(1-(pyrimidin-5-ylmethyl)-1H-indol-2-yl)-3,4-dihydro-5-oxa-1,2a-diazaacenaphthylen-7-yl)methanone]	1 to 10
N[C@@H]1CCCN(C(=O)c2cc3c4c(c2)nc(-c2cc5ccccc5n2Cc2cccnn2)n4CCO3)C1 [Example 30, (R)-(3-aminopiperidin-1-yl)(2-(1-(pyridazin-3-ylmethyl)-1H-indol-2-yl)-3,4-dihydro-5-oxa-1,2a-diazaacenaphthylen-7-yl)methanone]	1 to 10
CC(C)Cn1c(-c2nc3cc(C(=O)N4CCC[C@@H](N)C4)cc4c3n2CCO4)cc2ccccc21 [Example 31, (R)-(3-aminopiperidin-1-yl)(2-(1-isobutyl-1H-indol-2-yl)-3,4-dihydro-5-oxa-1,2a-diazaacenaphthylen-7-yl)methanone]	≤ 1
N[C@@H]1CCCN(C(=O)c2cc3c4c(c2)nc(-c2cc5ccc(F)cc5n2Cc2ncccc2F)n4CCO3)C1 [Example 35, (R)-(3-aminopiperidin-1-yl)(2-(6-fluoro-1-((3-fluoropyridin-2-yl)methyl)-1H-indol-2-yl)-3,4-dihydro-5-oxa-1,2a-diazaacenaphthylen-7-yl)methanone]	≤ 1
CN(C)C/C=C/C(=O)N[C@@H]1CCCN(C(=O)c2cc3c4c(c2)nc(-c2cc5ccccc5n2CC2CC2)n4CCO3)C1 [Example 38, (R,E)-N-(1-(2-(1-(cyclopropylmethyl)-1H-indol-2-yl)-3,4-dihydro-5-oxa-1,2a-diazaacenaphthylene-7-carbonyl)piperidin-3-yl)-4-(dimethylamino)but-2-enamide trifluoroacetic acid salt]	≥ 10
N[C@@H]1CCCN(C(=O)c2cc3c4c(c2)nc(-c2cc5ccccc5n2CC(=O)O)n4CCO3)C1 [Example 42, (R)-2-(2-(7-(3-aminopiperidine-1-carbonyl)-3,4-dihydro-5-ox 1,2a-diazaacenaphthylen-2-yl)-1H-indol-1-yl)acetic acid]	≥ 10
N[C@@H]1CCCN(C(=O)c2cc3c4c(c2)nc(-c2cc5ccccc5n2CC2CCNCC2)n4CCO3)C1 [Example 43, (R)-(3-aminopiperidin-1-yl)(2-(1-(piperidin-4-ylmethyl)-1H-indol-2-yl)-3,4-dihydro-5-oxa-1,2a-diazaacenaphthylen-7-yl)methanone]	≥ 10
N[C@@H]1CCCN(C(=O)c2cc3c4c(c2)nc(-c2cc5ccccc5n2CC2COC2)n4CCO3)C1 [Example 44, (R)-(3-aminopiperidin-1-yl)(2-(1-(oxetan-3-ylmethyl)-1H-indol-2-yl)-3,4-dihydro-5-oxa-1,2a-diazaacenaphthylen-7-yl)methanone]	1 to 10

Continued, values first:

IC50 [µM]	SMILES
1 to 10	N[C@@H]1CCCN(C(=O)c2cc3c4c(c2)nc(-c2cc5ccccc5n2CC2CC2)n4CCCO3)C1 [Example 6, (R)-(3-aminopiperidin-1-yl)(1-(1-(cyclopropylmethyl)-1H-indol-2-yl)-8,9-dihydro-7H-6-oxa-2,9a-diazabenzo[cd]azulen-4-yl)methanone]
1 to 10	N[C@@H]1CCN(C(=O)c2cc3c4c(c2)nc(-c2cc5ccccc5n2CC2CC2)n4CCCO3)C1 [Example 7, (R)-(3-aminopyrrolidin-1-yl)(1-(1-(cyclopropylmethyl)-1H-indol-2-yl)-8,9-dihydro-7H-6-oxa-2,9a-diazabenzo[cd]azulen-4-yl)methanone]
≤ 1	COCCn1c(-c2nc3cc(C(=O)N4CCC[C@@H](N)C4)cc4c3n2CCO4)cc2ccccc21 [Example 20, (R)-(3-aminopiperidin-1-yl)(2-(1-(2-methoxyethyl)-1H-indol-2-yl)-3,4-dihydro-5-oxa-1,2a-diazaacenaphthylen-7-yl)methanone]
≤ 1	COc1ccc2cc(-c3nc4cc(C(=O)N5CCC[C@@H](N)C5)cc5c4n3CCO5)n(CC3CC3)c2c1 [Example 23, (R)-(3-aminopiperidin-1-yl)(2-(1-(cyclopropylmethyl)-6-methoxy-1H-indol-2-yl)-3,4-dihydro-5-oxa-1,2a-diazaacenaphthylen-7-yl)methanone]
≤ 1	N[C@@H]1CCCN(C(=O)c2cc3c4c(c2)nc(-c2cc5ccccc5n2Cc2ccncc2F)n4CCO3)C1 [Example 24, (R)-(3-aminopiperidin-1-yl)(2-(1-((3-fluoropyridin-4-yl)methyl)-1H-indol-2-yl)-3,4-dihydro-5-oxa-1,2a-diazaacenaphthylen-7-yl)methanone]
≤ 1	N[C@@H]1CCCN(C(=O)c2cc3c4c(c2)nc(-c2cc5ccccc5n2Cc2ncccn2)n4CCO3)C1 [Example 27, (R)-(3-aminopiperidin-1-yl)(2-(1-(pyrimidin-2-ylmethyl)-1H-indol-2-yl)-3,4-dihydro-5-oxa-1,2a-diazaacenaphthylen-7-yl)methanone]
≤ 1	N[C@@H]1CCCN(C(=O)c2cc3c4c(c2)nc(-c2cc5ccc(F)cc5n2CC2CC2)n4CCO3)C1 [Example 28, (R)-(3-aminopiperidin-1-yl)(2-(1-(cyclopropylmethyl)-6-fluoro-1H-indol-2-yl)-3,4-dihydro-5-oxa-1,2a-diazaacenaphthylen-7-yl)methanone]
≤ 1	N[C@@H]1CCCN(C(=O)c2cc3c4c(c2)nc(-c2cc5cc(F)c(F)cc5n2CC2CC2)n4CCO3)C1 [Example 32, (R)-(3-aminopiperidin-1-yl)(2-(1-(cyclopropylmethyl)-5,6-difluoro-1H-indol-2-yl)-3,4-dihydro-5-oxa-1,2a-diazaacenaphthylen-7-yl)methanone]
≤ 1	COc1ccc2cc(-c3nc4cc(C(=O)N5CCC[C@@H](N)C5)cc5c4n3CCO5)n(Cc3ncccc3F)c2c1 [Example 33, (R)-(3-aminopiperidin-1-yl)(2-(1-((3-fluoropyridin-2-yl)methyl)-6-methoxy-1H-indol-2-yl)-3,4-dihydro-5-oxa-1,2a-diazaacenaphthylen-7-yl)methanone]
≤ 1	N[C@@H]1CCCN(C(=O)c2cc3c4c(c2)nc(-c2cc5cccc(Cl)c5n2Cc2ncccc2F)n4CCO3)C1 [Example 34, (R)-(3-aminopiperidin-1-yl)(2-(7-chloro-1-((3-fluoropyridin-2-yl)methyl)-1H-indol-2-yl)-3,4-dihydro-5-oxa-1,2a-diazaacenaphthylen-7-yl)methanone]
≤ 1	COCCn1c(-c2nc3cc(C(=O)N4CCC[C@@H](N)C4)cc4c3n2CCO4)cc2cccc(Cl)c21 [Example 36, (R)-(3-aminopiperidin-1-yl)(2-(7-chloro-1-(2-methoxyethyl)-1H-indol-2-yl)-3,4-dihydro-5-oxa-1,2a-diazaacenaphthylen-7-yl)methanone]
≤ 1	N[C@@H]1CCCN(C(=O)c2cc3c4c(c2)nc(-c2cc5ccccc5n2Cc2ccc(CO)cc2)n4CCO3)C1 [Example 37, (R)-(3-aminopiperidin-1-yl)(2-(1-(4-(hydroxymethyl)benzyl)-1H-indol-2-yl)-3,4-dihydro-5-oxa-1,2a-diazaacenaphthylen-7-yl)methanone trifluoroacetic acid salt]
1 to 10	N[C@@H]1CCCN(C(=O)c2cc3c4c(c2)nc(-c2cc5ccccc5n2CC2CCOCC2)n4CCO3)C1 [Example 40, (R)-(3-aminopiperidin-1-yl)(2-(1-((tetrahydro-2H-pyran-4-yl)methyl)-1H-indol-2-yl)-3,4-dihydro-5-oxa-1,2a-diazaacenaphthylen-7-yl)methanone]

From patent US11833156B2, “Heterocyclic compounds as pad inhibitors” (JUBILANT EPIPAD LLC, priority 2017, dated 2023)
